Measured values from patent US8637537B2, “Serine/threonine kinase inhibitors” (Genentech, Inc., priority 2011, dated 2014).
Where a name gives a salt, the structure may show the parent alone. Read-outs that look alike come from different tables or passages of the source.

Molecular target: T1, human recombinant GST-PAK1-KD protein (Homo sapiens, UniProt Q13153)
T1 construct: residues #249-545 of human PAK1, UniProtKP/Swiss Q13153; His6 (N); made in house; host or cells: Sf9 insect cells, pAcGP67 baculovirus expression vector
Assay: GST-PAK1-KD (kinase domain) biochemical assay, microfluidic mobility shift
Protocol: Activity of human recombinant GST-PAK1-KD protein was assessed in vitro assay by observing the phosphorylation of a fluorogenic peptide substrate.
The peptide substrate is a consensus sequence based on various PAK1 substrates reported in the scientific literature. […] Incubations were carried out at 22° C. in MatriCal MP101 384-well Metriplates™. […] Following the 30-minute incubation, the assay mixtures were quenched by the addition of 3 μL of 250 mM EDTA, and the substrate and phosphorylated product were separated by capillary electrophoresis and detected using LabChip® Caliper 3000 (Caliper Life Sciences).

[1] = Table I, PAK1 Ki class, read-out: Ki

T1 sequence (Q13153 249-545): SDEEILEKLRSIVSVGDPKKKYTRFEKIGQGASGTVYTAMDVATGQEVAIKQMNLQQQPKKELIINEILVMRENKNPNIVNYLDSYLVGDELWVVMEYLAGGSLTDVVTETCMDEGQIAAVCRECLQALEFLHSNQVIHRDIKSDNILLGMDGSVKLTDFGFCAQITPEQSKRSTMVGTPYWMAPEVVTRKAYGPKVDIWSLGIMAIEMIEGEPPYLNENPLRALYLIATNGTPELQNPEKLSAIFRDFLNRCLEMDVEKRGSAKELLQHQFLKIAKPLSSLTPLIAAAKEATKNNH

Ki [1] | Ki | SMILES
< 50 nM |  | F[C@@H]1C[C@H]1c1cc(Nc2ccnc(NCc3ccc4[nH]cnc4c3Cl)n2)n[nH]1 [I-78, N^2-((4-chloro-1H-benzo[d]imidazol-5-yl)methyl)-N^4-(5-((1S,2R)-2-fluorocyclopropyl)-1H-pyrazol-3-yl)pyrimidine-2,4-diamine]
< 50 nM |  | FC1(F)CC1c1cc(Nc2ccnc(NCc3cccc4[nH]ccc34)n2)n[nH]1 (centres unmarked) [I-82, N2—((1H-indol-4-yl)methyl)-N4-(5-(2,2-difluorocyclopropyl)-1H-pyrazol-3-yl)pyrimidine-2,4-diamine]
< 50 nM |  | C[C@H](Nc1nc(Nc2cc(C3CC3)[nH]n2)cc(C(C)(C)O)n1)c1ccc2[nH]ccc2c1 [I-83, (S)-2-(2-(1-(1H-indol-5-yl)ethylamino)-6-(5-cyclopropyl-1H-pyrazol-3-ylamino)pyrimidin-4-yl)propan-2-ol]
< 50 nM |  | CC(C)(O)c1cc(Nc2cc(C3CC3)[nH]n2)nc(NCc2ccc3[nH]cnc3c2Cl)n1 [I-84, 2-(2-((4-chloro-1H-benzo[d]imidazol-5-yl)methylamino)-6-(5-cyclopropyl-1H-pyrazol-3-ylamino)pyrimidin-4-yl)propan-2-ol]
 | < 50 nM | CN(Cc1ccc2[nH]cnc2c1Cl)c1nccc(Nc2cc(C3CC3)[nH]n2)n1 [I-87, N^2-((4-chloro-1H-benzo[d]imidazol-5-yl)methyl)-N^4-(5-cyclopropyl-1H-pyrazol-3-yl)-N^2-methylpyrimidine-2,4-diamine]
< 50 nM |  | Fc1cc(CNc2nccc(Nc3cc(C4CCC4)[nH]n3)n2)c2cc[nH]c2c1 [I-88, N^4-(5-Cyclobutyl-1H-pyrazol-3-yl)-N^2-((6-fluoro-1H-indol-4-yl)methyl)pyrimidine-2,4-diamine Formate]
< 50 nM |  | Cc1c(CN(C)c2nccc(Nc3cc(C4CC4)[nH]n3)n2)ccc2[nH]cnc12 [I-95, N^4-(5-Cyclopropyl-1H-pyrazol-3-yl)-N^2-methyl-N^2-((4-methyl-1H-benzo[d]imidazol-5-yl)methyl)pyrimidine-2,4-diamine]
< 50 nM |  | C[C@H](Nc1nccc(Nc2cc(C3CC3)[nH]n2)n1)c1cccc2[nH]ccc12 [I-98, N^4-(5-cyclopropyl-1H-pyrazol-3-yl)-N^2-[(1S)-1-(1H-indol-4-yl)ethyl]pyrimidine-2,4-diamine]
50 to 250 nM |  | CC[C@H](Nc1ncc(F)c(Nc2cc(C3CC3)[nH]n2)n1)c1ccc2[nH]cnc2c1 [I-101, N^2-[(1S)-1-(1H-benzimidazol-5-yl)propyl]-N^4-(5-cyclopropyl-1H-pyrazol-3-yl)-5-fluoro-pyrimidine-2,4-diamine]
250 to 1000 nM |  | c1cc(Nc2cc(C3CC3)[nH]n2)nc(NCc2ccc3[nH]ncc3c2)n1 [I-102, N^4-(5-cyclopropyl-1H-pyrazol-3-yl)-N^2-(1H-indazol-5-ylmethyl)pyrimidine-2,4-diamine]
> 1000 nM |  | c1cc(Nc2cc(C3CC3)[nH]n2)nc(NCc2ccc3cn[nH]c3c2)n1 [I-103, N^4-(5-cyclopropyl-1H-pyrazol-3-yl)-N^2-(1H-indazol-6-ylmethyl)pyrimidine-2,4-diamine]
50 to 250 nM |  | FC1(F)CC(c2cc(Nc3ccnc(NCc4cccc5[nH]ccc45)n3)n[nH]2)C1 [I-104, N^2-((1H-indol-4-yl)methyl)-N^4-(5-(3,3-difluorocyclobutyl)-1H-pyrazol-3-yl)pyrimidine-2,4-diamine]
< 50 nM |  | FC1(F)CC(c2cc(Nc3ccnc(NCc4ccc5[nH]cnc5c4Cl)n3)n[nH]2)C1 [I-105, N^2-((4-chloro-1H-benzo[d]imidazol-5-yl)methyl)-N^4-(5-(3,3-difluorocyclobutyl)-1H-pyrazol-3-yl)pyrimidine-2,4-diamine]
< 50 nM |  | Clc1c(CNc2nccc(Nc3cc(C4CCCC4)[nH]n3)n2)ccc2[nH]cnc12 [I-107, N^2-((4-chloro-1H-benzo[d]imidazol-5-yl)methyl)-N^4-(5-cyclopentyl-1H-pyrazol-3-yl)pyrimidine-2,4-diamine]
< 50 nM |  | Clc1c(CNc2nccc(Nc3cc(C4CCC4)[nH]n3)n2)ccc2[nH]cnc12 [I-108, N^2-((4-chloro-1H-benzo[d]imidazol-5-yl)methyl)-N^4-(5-cyclobutyl-1H-pyrazol-3-yl)pyrimidine-2,4-diamine]
250 to 1000 nM |  | C[C@H](Nc1ncc(Cl)c(Nc2cc(C3CC3)[nH]n2)n1)c1ccc2[nH]ccc2c1 [I-110, (S)—N^2-(1-(1H-indol-5-yl)ethyl)-5-chloro-N^4-(5-cyclopropyl-1H-pyrazol-3-yl)pyrimidine-2,4-diamine]
< 50 nM |  | C[C@H](Nc1nccc(Nc2cc(C3CC(F)(F)C3)[nH]n2)n1)c1ccc2[nH]ccc2c1 [I-111, (S)—N^2-(1-(1H-indol-5-yl)ethyl)-N^4-(5-(3,3-difluorocyclobutyl)-1H-pyrazol-3-yl)pyrimidine-2,4-diamine]
< 50 nM |  | C[C@H](Nc1nccc(Nc2cc(C3CCCC3)[nH]n2)n1)c1ccc2[nH]ccc2c1 [I-113, (S)—N^2-(1-(1H-indol-5-yl)ethyl)-N^4-(5-cyclopentyl-1H-pyrazol-3-yl)pyrimidine-2,4-diamine]
< 50 nM |  | C[C@H](Nc1nccc(Nc2cc(C3CCOC3)[nH]n2)n1)c1ccc2[nH]ccc2c1 (stereo partly drawn) [I-115, N^2—((S)-1-(1H-indol-5-yl)ethyl)-N^4-(5-(tetrahydrofuran-3-yl)-1H-pyrazol-3-yl)pyrimidine-2,4-diamine]

The next lines start with the compound.

SMILES | Ki [1] | Ki
F[C@H]1C[C@H]1c1cc(Nc2ccnc(NCc3ccc4[nH]cnc4c3Cl)n2)n[nH]1 [I-76, N^2-((4-chloro-1H-benzo[d]imidazol-5-yl)methyl)-N^4-(5-((1S,2S)-2-fluorocyclopropyl)-1H-pyrazol-3-yl)pyrimidine-2,4-diamine] | < 50 nM | 
F[C@@H]1C[C@@H]1c1cc(Nc2ccnc(NCc3ccc4[nH]cnc4c3Cl)n2)n[nH]1 [I-77, N^2-((4-chloro-1H-benzo[d]imidazol-5-yl)methyl)-N^4-(5-((1R,2R)-2-fluorocyclopropyl)-1H-pyrazol-3-yl)pyrimidine-2,4-diamine] | < 50 nM | 
F[C@H]1C[C@@H]1c1cc(Nc2ccnc(NCc3ccc4[nH]cnc4c3Cl)n2)n[nH]1 [I-79, N^2-((4-chloro-1H-benzo[d]imidazol-5-yl)methyl)-N^4-(5-((1R,2S)-2-fluorocyclopropyl)-1H-pyrazol-3-yl)pyrimidine-2,4-diamine] | < 50 nM | 
CC(C)(O)c1cc(Nc2cc(C3CC3)[nH]n2)nc(NCc2cccc3[nH]ccc23)n1 [I-85, 2-(2-((1H-indol-4-yl)methylamino)-6-(5-cyclopropyl-1H-pyrazol-3-ylamino)pyrimidin-4-yl)propan-2-ol] | 50 to 250 nM | 
CN(Cc1ccc2[nH]cnc2c1Cl)c1ncc(F)c(Nc2cc(C3CC3)[nH]n2)n1 [I-86, N^2-((4-chloro-1H-benzo[d]imidazol-5-yl)methyl)-N^4-(5-cyclopropyl-1H-pyrazol-3-yl)-5-fluoro-N^2-methylpyrimidine-2,4-diamine] | < 50 nM | 
Cc1cc(Nc2cc(C3CC3)[nH]n2)nc(NCc2cc(F)cc3[nH]ccc23)n1 [I-89, N^4-(5-Cyclopropyl-1H-pyrazol-3-yl)-N^2-((6-fluoro-1H-indol-4-yl)methyl)-6-methylpyrimidine-2,4-diamine Formate] | 250 to 1000 nM | 
Fc1cc(CNc2ncc(F)c(Nc3cc(C4CCC4)[nH]n3)n2)c2cc[nH]c2c1 [I-90, N^4-(5-Cyclobutyl-1H-pyrazol-3-yl)-5-fluoro-N^2-((6-fluoro-1H-indol-4-yl)methyl)pyrimidine-2,4-diamine formate] | 250 to 1000 nM | 
Fc1cc(CNc2ncc(F)c(Nc3cc(C4CC4)[nH]n3)n2)c2cc[nH]c2c1 [I-91, N^4-(5-Cyclopropyl-1H-pyrazol-3-yl)-5-fluoro-N^2-((6-fluoro-1H-indol-4-yl)methyl)pyrimidine-2,4-diamine diformate] | 250 to 1000 nM | 
Cc1c[nH]c2cccc(CNc3nccc(Nc4cc(C5CC5)[nH]n4)n3)c12 [I-92, N^4-(5-Cyclopropyl-1H-pyrazol-3-yl)-N^2-((3-methyl-1H-indol-4-yl)methyl)pyrimidine-2,4-diamine] | < 50 nM | 
Clc1cc2[nH]ccc2cc1CNc1nccc(Nc2cc(C3CC3)[nH]n2)n1 [I-93, N^2-((6-Chloro-1H-indol-5-yl)methyl)-N^4 (5-cyclopropyl-1H-pyrazol-3-yl)pyrimidine-2,4-diamine] | 50 to 250 nM | 
Clc1cc2[nH]cnc2cc1CNc1nccc(Nc2cc(C3CC3)[nH]n2)n1 [I-94, N^2-((6-chloro-1H-benzo[d]imidazol-5-yl)methyl)-N^4-(5-cyclopropyl-1H-pyrazol-3-yl)-pyrimidine-2,4-diamine] | 50 to 250 nM | 
Fc1cc(CNc2nccc(Nc3cc(C4CC4)[nH]n3)n2)cc2nc[nH]c12 [I-96, N^4-(5-cyclopropyl-1H-pyrazol-3-yl)-N^2-((7-fluoro-1H-benzo[d]imidazol-5-yl)methyl)pyrimidine-2,4-diamine] | 50 to 250 nM | 
Fc1cnc(NCc2cccc3[nH]cnc23)nc1Nc1cc(C2CC2)n[nH]1 [I-97, N^2-((3H-benzo[d]imidazol-4-yl)methyl)-N^4-(3-cyclopropyl-1H-pyrazol-5-yl)-5-fluoropyrimidine-2,4-diamine] | < 50 nM | 
C[C@H](Nc1ncc(F)c(Nc2cc(C3CC3)[nH]n2)n1)c1cccc2[nH]ccc12 [I-99, N^4-(5-cyclopropyl-1H-pyrazol-3-yl)-5-fluoro-N^2-[(1S)-1-(1H-indol-4-yl)ethyl]pyrimidine-2,4-diamine] | 50 to 250 nM | 
C[C@@H](Nc1ncc(F)c(Nc2cc(C3CC3)[nH]n2)n1)c1cccc2[nH]ccc12 [I-100, N^4-(5-cyclopropyl-1H-pyrazol-3-yl)-5-fluoro-N^2-[(1R)-1-(1H-indol-4-yl)ethyl]pyrimidine-2,4-diamine] | > 1000 nM | 
Cc1cc(Nc2ccnc(N[C@@H](C)c3ccc4[nH]ccc4c3)n2)n[nH]1 [I-112, (S)—N^2-(1-(1H-indol-5-yl)ethyl)-N^4-(5-methyl-1H-pyrazol-3-yl)pyrimidine-2,4-diamine] | 250 to 1000 nM | 
